The text below walks through data of patent publication US20210122730A1, “GLUCOCORTICOID RECEPTOR MODULATORS” (ORIC Pharmaceuticals, Inc., priority 2017, published 2021).

The test deals with T1, GR (Homo sapiens, UniProt P04150).
T1 construct: expressed in transfected cells; host or cells: CHO-K1
T1 sequence (P04150 1-777): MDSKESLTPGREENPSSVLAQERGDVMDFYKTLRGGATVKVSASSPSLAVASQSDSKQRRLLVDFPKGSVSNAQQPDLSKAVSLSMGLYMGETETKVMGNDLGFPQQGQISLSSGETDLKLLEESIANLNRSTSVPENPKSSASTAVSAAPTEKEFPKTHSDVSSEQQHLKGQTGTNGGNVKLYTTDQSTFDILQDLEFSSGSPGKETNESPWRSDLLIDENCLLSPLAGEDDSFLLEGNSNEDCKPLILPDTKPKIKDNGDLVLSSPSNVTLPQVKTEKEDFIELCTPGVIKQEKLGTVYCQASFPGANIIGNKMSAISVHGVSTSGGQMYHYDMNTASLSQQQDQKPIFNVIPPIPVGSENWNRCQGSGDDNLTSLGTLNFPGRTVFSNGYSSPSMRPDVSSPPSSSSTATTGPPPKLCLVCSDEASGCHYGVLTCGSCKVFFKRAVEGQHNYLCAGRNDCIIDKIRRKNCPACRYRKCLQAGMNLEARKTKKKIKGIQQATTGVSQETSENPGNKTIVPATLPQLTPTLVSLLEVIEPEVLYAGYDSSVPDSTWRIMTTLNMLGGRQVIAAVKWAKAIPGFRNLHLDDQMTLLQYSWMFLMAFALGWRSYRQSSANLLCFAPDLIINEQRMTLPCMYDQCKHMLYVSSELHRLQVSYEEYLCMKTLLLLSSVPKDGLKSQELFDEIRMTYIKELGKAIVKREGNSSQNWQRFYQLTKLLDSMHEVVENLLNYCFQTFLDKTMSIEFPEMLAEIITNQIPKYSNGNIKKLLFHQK
In words: In Vitro GR Luciferase Reporter Assay (antagonist mode, CHO-K1-GR-MMTV-Luc reporter cells). The format is cell-based. The settings on record: antagonist mode, 10 nM Dexamethasone. The essentials: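 CHO-K1-GR-MMTV-Luc cells in phenol red-free DMEM with 10% CSS, stimulated with 10 nM dexamethasone (final) and treated with 8-point 1:5 compound dilutions for about 18-24 h at 37° C. Luciferase measured by OneGlo luminescence; IC50 derived for inhibition of GR activity.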
(In general: In a reporter assay the amount or activity of a reporter protein is the signal.)

Some results are limits rather than exact numbers.

Regarding `Cn1cnc(S(=O)(=O)[C@H]2CCC3=Cc4c(cnn4-c4ccc(F)cc4)C[C@]3(C(=O)c3cc(C(F)(F)F)ccn3)C2)n1` [Example 365, ((4aS,6S)-1-(4-fluorophenyl)-6-((1-methyl-1H-1,2,4-triazol-3-yl)sulfonyl)-1,4,5,6,7,8-hexahydro-4aH-benzo[f]indazol-4a-yl)(4-(trifluoromethyl)pyridin-2-yl)methanone], the IC50 (in general, the concentration that inhibits the measured activity by half) was not above 100 nM.

The compound `Cn1ccc(S(=O)(=O)N([C@H]2CCC3=Cc4c(cnn4-c4ccc(F)cc4)C[C@]3(C(=O)c3cc(C(F)(F)F)ccn3)C2)[C@H]2C[C@@](O)(C(F)(F)F)C2)n1` [Example 369, N-((4aS,6S)-1-(4-fluorophenyl)-4a-(4-(trifluoromethyl)picolinoyl)-4,4a,5,6,7,8-hexahydro-1H-benzo[f]indazol-6-yl)-N-((1r,3S)-3-hydroxy-3-(trifluoromethyl)cyclobutyl)-1-methyl-1H-pyrazole-3-sulfonamide] showed an IC50 not above 100 nM.

In the case of `O=C(c1cc(Cl)ccn1)[C@]12Cc3cnn(-c4ccc(F)cc4)c3C=C1CC[C@H](N(C1CC(F)(F)C1)S(=O)(=O)c1ccc(Cl)nc1)C2` [Example 370, 6-chloro-N-((4aS,6S)-4a-(4-chloropicolinoyl)-1-(4-fluorophenyl)-4,4a,5,6,7,8-hexahydro-1H-benzo[f]indazol-6-yl)-N-(3,3-difluorocyclobutyl)pyridine-3-sulfonamide], the IC50 was not above 100 nM.

`COCCN([C@H]1CCC2=Cc3c(cnn3-c3ccc(F)cc3)C[C@]2(C(=O)c2ncc(C(F)(F)F)s2)C1)S(=O)(=O)c1ccc(F)cc1` [Example 372, 4-fluoro-N-((4aS,6S)-1-(4-fluorophenyl)-4a-(5-(trifluoromethyl)thiazole-2-carbonyl)-4,4a,5,6,7,8-hexahydro-1H-benzo[f]indazol-6-yl)-N-(2-methoxyethyl)benzenesulfon-amide] returned an IC50 not above 100 nM.

`Cn1cc(S(=O)(=O)CC2CCC3=Cc4c(cnn4-c4ccc(F)cc4)C[C@]3(C(=O)c3ncc(C(F)(F)F)s3)C2)cn1` (stereo partly drawn) [Example 375, ((4aR)-1-(4-fluorophenyl)-6-(((1-methyl-1H-pyrazol-4-yl)sulfonyl)methyl)-1,4,5,6,7,8-hexahydro-4aH-benzo[f]indazol-4a-yl)(5-(trifluoromethyl)thiazol-2-yl)methanone] showed an IC50 not above 100 nM.

With `CCN([C@H]1CCC2=Cc3c(cnn3-c3ccc(F)cc3)C[C@]2(C(=O)c2ncc(C(F)(F)F)s2)C1)S(=O)(=O)c1cncn1C` [Example 376, N-ethyl-N-((4aS,6S)-1-(4-fluorophenyl)-4a-(5-(trifluoromethyl)thiazole-2-carbonyl)-4,4a,5,6,7,8-hexahydro-1H-benzo[f]indazol-6-yl)-1-methyl-1H-imidazole-5-sulfonamide], the IC50 is not above 100 nM.

`Cn1cnc(S(=O)(=O)N(CC(F)(F)F)[C@H]2CCC3=Cc4c(cnn4-c4ccc(F)cc4)C[C@]3(C(=O)c3cc(C(F)(F)F)ccn3)C2)n1` [Example 378, N-((4aS,6S)-1-(4-fluorophenyl)-4a-(4-(trifluoromethyl)picolinoyl)-4,4a,5,6,7,8-hexahydro-1H-benzo[f]indazol-6-yl)-1-methyl-N-(2,2,2-trifluoroethyl)-1H-1,2,4-triazole-3-sulfonamide] returned an IC50 not above 100 nM.

Turning to `Cn1cnc(S(=O)(=O)CC2CCC3=Cc4c(cnn4-c4ccc(F)cc4)C[C@]3(C(=O)c3ncc(C(F)(F)F)s3)C2)n1` (stereo partly drawn) [Example 379, ((4aR)-1-(4-fluorophenyl)-6-(((1-methyl-1H-1,2,4-triazol-3-yl)sulfonyl)methyl)-1,4,5,6,7,8-hexahydro-4aH-benzo[f]indazol-4a-yl)(5-(trifluoromethyl)thiazol-2-yl)methanone], the IC50 is not above 100 nM.

`Cn1ccc(S(=O)(=O)N(CCF)[C@H]2CCC3=Cc4c(cnn4-c4ccc(F)cc4)C[C@]3(C(=O)c3cc(C(F)(F)F)ccn3)C2)n1` [Example 380, N-(2-fluoroethyl)-N-((4aS,6S)-1-(4-fluorophenyl)-4a-(4-(trifluoromethyl)picolinoyl)-4,4a,5,6,7,8-hexahydro-1H-benzo[f]indazol-6-yl)-1-methyl-1H-pyrazole-3-sulfonamide] registered an IC50 not above 100 nM.

Compound `CO[C@]1(C)C[C@H](N([C@H]2CCC3=Cc4c(cnn4-c4ccc(F)cc4)C[C@]3(C(=O)c3cc(Cl)ccn3)C2)S(=O)(=O)c2ccn(C)n2)C1` [Example 381, N-((4aS,6S)-4a-(4-chloropicolinoyl)-1-(4-fluorophenyl)-4,4a,5,6,7,8-hexahydro-1H-benzo[f]indazol-6-yl)-N-((1s,3R)-3-methoxy-3-methylcyclobutyl)-1-methyl-1H-pyrazole-3-sulfonamide] returned an IC50 not above 100 nM.

As for `Cn1cnc(S(=O)(=O)N(CCF)[C@H]2CCC3=Cc4c(cnn4-c4ccc(F)cc4)C[C@]3(C(=O)c3ncc(C(F)(F)F)s3)C2)n1` [Example 382, N-(2-fluoroethyl)-N-((4aS,6S)-1-(4-fluorophenyl)-4a-(5-(trifluoromethyl)thiazole-2-carbonyl)-4,4a,5,6,7,8-hexahydro-1H-benzo[f]indazol-6-yl)-1-methyl-1H-1,2,4-triazole-3-sulfonamide], the IC50 was not above 100 nM.

`Cn1cnc(S(=O)(=O)N(CC(F)F)[C@H]2CCC3=Cc4c(cnn4-c4ccc(F)cc4)C[C@]3(C(=O)c3ncc(C(F)(F)F)s3)C2)c1` [Example 383, N-(2,2-difluoroethyl)-N-((4aS,6S)-1-(4-fluorophenyl)-4a-(5-(trifluoromethyl)thiazole-2-carbonyl)-4,4a,5,6,7,8-hexahydro-1H-benzo[f]indazol-6-yl)-1-methyl-1H-imidazole-4-sulfonamide] registered an IC50 not above 100 nM.

Compound `CO[C@]1(C)C[C@H](N([C@H]2CCC3=Cc4c(cnn4-c4ccc(F)cc4)C[C@]3(C(=O)c3cc(C(F)(F)F)ccn3)C2)S(=O)(=O)c2ccn(C)n2)C1` [Example 384, N-((4aS,6S)-1-(4-fluorophenyl)-4a-(4-(trifluoromethyl)picolinoyl)-4,4a,5,6,7,8-hexahydro-1H-benzo[f]indazol-6-yl)-N-((1s,3R)-3-methoxy-3-methylcyclobutyl)-1-methyl-1H-pyrazole-3-sulfonamide] registered an IC50 not above 100 nM.

`Cn1cnc(S(=O)(=O)N(CCF)[C@H]2CCC3=Cc4c(cnn4-c4ccc(F)cc4)C[C@]3(C(=O)c3cc(C(F)(F)F)ccn3)C2)n1` [Example 385, N-(2-fluoroethyl)-N-((4aS,6S)-1-(4-fluorophenyl)-4a-(4-(trifluoromethyl)picolinoyl)-4,4a,5,6,7,8-hexahydro-1H-benzo[f]indazol-6-yl)-1-methyl-1H-1,2,4-triazole-3-sulfonamide] came in with an IC50 not above 100 nM.

In turn, `O=C(c1ncc(C(F)(F)F)s1)[C@]12Cc3cnn(-c4ccc(F)cc4)c3C=C1CC[C@H](N(CCF)S(=O)(=O)c1ccc(F)cc1)C2` [Example 386, 4-fluoro-N-(2-fluoroethyl)-N-((4aS,6S)-1-(4-fluorophenyl)-4a-(5-(trifluoromethyl)thiazole-2-carbonyl)-4,4a,5,6,7,8-hexahydro-1H-benzo[f]indazol-6-yl)benzenesulfonamide] yielded an IC50 not above 100 nM.

`O=C(c1cc(C(F)(F)F)ccn1)[C@]12Cc3cnn(-c4ccc(F)cc4)c3C=C1CC[C@H](N(CCF)S(=O)(=O)c1ccc(F)cc1)C2` [Example 387, 4-fluoro-N-(2-fluoroethyl)-N-((4aS,6S)-1-(4-fluorophenyl)-4a-(4-(trifluoromethyl)picolinoyl)-4,4a,5,6,7,8-hexahydro-1H-benzo[f]indazol-6-yl)benzenesulfonamide]: the IC50 is not above 100 nM.

Compound `Cn1cnc(S(=O)(=O)N(CCC#N)[C@H]2CCC3=Cc4c(cnn4-c4ccc(F)cc4)C[C@]3(C(=O)c3ncc(C(F)(F)F)s3)C2)n1` [Example 388, N-(2-cyanoethyl)-N-((4aS,6S)-1-(4-fluorophenyl)-4a-(5-(trifluoromethyl)thiazole-2-carbonyl)-4,4a,5,6,7,8-hexahydro-1H-benzo[f]indazol-6-yl)-1-methyl-1H-1,2,4-triazole-3-sulfonamide] returned an IC50 not above 100 nM.

As to `O=C(c1cc(F)ccn1)[C@]12Cc3cnn(-c4ccc(F)cc4)c3C=C1CC[C@H](N(CCF)S(=O)(=O)c1ccc(F)cc1)C2` [Example 389, 4-fluoro-N-(2-fluoroethyl)-N-((4aS,6S)-1-(4-fluorophenyl)-4a-(4-fluoropicolinoyl)-4,4a,5,6,7,8-hexahydro-1H-benzo[f]indazol-6-yl)benzenesulfonamide], the IC50 is not above 100 nM.

With `O=C(c1cc(Cl)ccn1)[C@]12Cc3cnn(-c4ccc(F)cc4)c3C=C1CC[C@H](N(CCF)S(=O)(=O)c1ccc(F)cc1)C2` [Example 390, N-((4aS,6S)-4a-(4-chloropicolinoyl)-1-(4-fluorophenyl)-4,4a,5,6,7,8-hexahydro-1H-benzo[f]indazol-6-yl)-4-fluoro-N-(2-fluoroethyl)benzenesulfonamide], the half-maximal inhibitory concentration (IC50) is not above 100 nM.
